According to patent US5480983A, “Adenosine derivatives, preparation methods and pharmaceutical compositions containing them” (Laboratoires UPSA, priority 1992, dated 1996):

Legend:
platelet aggregation = conditions: as described in Journal of Medicinal Chemistry; cited from earlier work
[1] = Phenylbenzoquinone test (analgesic activity); type: in vivo; conditions: Mus musculus, 1 h; mice; oral, one hour before phenylbenzoquinone i.p.; 5 minutes observation; read-out: Phenylbenzoquinone test 50% inhibitory dose
Experimental: 2. Phenylbenzoquinone test
The intraperitoneal injection of phenylbenzoquinone causes twisting and stretching movements in mice. Analgesics prevent or reduce this syndrome, which can be considered as the exteriorization of diffuse abdominal pain.
A 0.02% solution of phenylbenzoquinone in water is administered in a volume of 1 ml/100 g.
The products of the Examples are administered orally one hour before the injection of phenylbenzoquinone.
The stretching and twisting movements are counted for each mouse over an observation period of 5 minutes.

[2] = molecular target: T1, rat central A1 adenosinergic receptors (Rattus norvegicus, UniProt P25099); test: Binding to adenosine A1 receptors ([3H] PIA displacement); conditions: [3H] PIA 2.5 nM, n=3; for inhibition at 10 µM: 1E-5M, read-out: % displacement of the labeled ligand, A1, 1E-5M; for inhibition at 0.1 µM: 1E-7M, read-out: % displacement of the labeled ligand, A1, 1E-7M
T1 construct: After the animal has been sacrificed by decapitation, the brain is quickly removed and washed in cold isotonic solution; from tissue; host or cells: rat brain, membrane preparation from the two hemispheres
T1 sequence (P25099 1-326): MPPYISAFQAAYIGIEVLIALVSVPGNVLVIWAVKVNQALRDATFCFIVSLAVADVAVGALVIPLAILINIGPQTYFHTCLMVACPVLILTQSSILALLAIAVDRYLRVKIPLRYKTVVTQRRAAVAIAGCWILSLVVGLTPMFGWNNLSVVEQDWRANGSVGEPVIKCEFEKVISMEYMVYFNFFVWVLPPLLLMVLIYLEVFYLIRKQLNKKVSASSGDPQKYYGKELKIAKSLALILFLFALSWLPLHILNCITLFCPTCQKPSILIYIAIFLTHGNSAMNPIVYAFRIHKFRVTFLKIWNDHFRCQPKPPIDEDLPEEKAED
Experimental: (§1) The affinity of the products of the Examples for the rat central A1 and A2 adenosinergic receptors is determined by the competitive technique using a radioactive ligand specifically bound either to the A1 receptors ([^3 H] PIA) or to the A2 receptors ([^3 H] NECA).
After the animal has been sacrificed by decapitation, the brain is quickly removed and washed in cold isotonic solution. The two hemispheres are separated and weighed and each of them is introduced into a polyallomer tube containing 25 volumes of cold homogenization buffer. Homogenization is effected using an Ultra-Turrax for 30 seconds (3 times 10 seconds with 10-second intervals, 70% of the maximum speed). The ground material obtained is centrifuged at 1000 g (≈3000 rpm) for 10 minutes at 4° C.
The supernatant is centrifuged again at 48,000 g (≈20,000 rpm) for 20 minutes at 4° C.
When this step is complete, the residue is taken up with 4 volumes of homogenization buffer, resuspended using a Vortex and homogenized with the Ultra-Turrax. Adenosine deaminase is then added at a rate of 1 U/ml, i.e. 1 μl/ml of homogenate, using a 10 μl Hamilton syringe.
After this treatment, the homogenate is shaken for 30 minutes at room temperature and then centrifuged at […] (≈20,000 rpm) for 30 minutes at 4° C.
The residue obtained is resuspended in 10 volumes of homogenization buffer and passed through the Ultra-Turrax for 20 seconds (2 times 10 seconds with a 10-second interval, 70% of the maximum speed).
The homogenate prepared in this way is used for the competitive tests. It is kept at 4° C. if the studies take place the same day, or stored at -20° C. in the form of 10 ml aliquots.
After the homogenate has been thawed at room temperature, it is passed through a Potter mill (6 manual to-and-fro movements, speed 6), diluted to 2/5 in incubation buffer and placed in a water bath thermostated at 4° C., with shaking, until the end of the experiment.
(§2) 50 μl of [^3 H] PIA at 100 nM, i.e. 2.5 nM in the final reaction medium allowing for the 1/40 dilution, and 50 μl of the product of the Example at the concentrations considered (10^-1 M and 10^-7 M) are introduced into the reaction tubes. The reaction is initiated by the addition of 1 ml of homogenate and 900 μl of incubation buffer. The procedure is identical for all the beta-blockers studied.
(§3) The tubes are shaken and incubated in a water bath at 20° C. for 30 minutes. When the incubation is complete, the contents of the tubes are filtered on Whatman GF/B paper. Each tube is washed twice with 2 ml of rinsing buffer and then the filters themselves are rinsed with 3 ml of this same buffer.
The filters are then transferred to counting flasks and 10 ml of liquid scintillator (Ready Solv HP/b, Beckman) are added.
After they have been shaken, the flasks are stored in a refrigerator overnight and the radio-activity is then determined in a liquid scintillation counter.
(§4) 3 tests are performed for each concentration studied. The non-specific binding of the [^3 H] PIA is assessed by measuring the amount of radioactivity retained on the filter in the presence of 10^-5 M phenylisopropyladenosine (PIA). The value of the non-specific binding is systematically subtracted from that of the tests.
(§5) The results are expressed for each product in the form of the percentage displacement (n=3) of the labeled radioligand at concentrations of 10^-5 M and 10^-7 M.

[3] = molecular target: T2, rat central A2 adenosinergic receptors (Rattus norvegicus, UniProt P30543); test: Binding to adenosine A2 receptors ([3H] NECA displacement); conditions: [3H] NECA 4 nM, n=3; for inhibition at 10 µM: 1E-5M, read-out: % displacement of the labeled ligand, A2, 1E-5M; for inhibition at 0.1 µM: 1E-7M, read-out: % displacement of the labeled ligand, A2, 1E-7M
T2 construct: the striatum is removed from each of them (Bruns et al., 1986); from tissue; host or cells: rat striatum, homogenate (membrane preparation)
Experimental: as §1
Method of studying the A2 receptors Membrane preparation
After decapitation of the animal, the brain is quickly removed and washed in cold isotonic solution. The two hemispheres are separated and the striatum is removed from each of them (Bruns et al., 1986), weighed and introduced into a polyallomer tube containing 10 volumes of cold homogenization buffer. The tissue is homogenized with an Ultra-Turrax for 30 seconds (3 times 10 seconds with 10-second intervals, 70% of the maximum speed). The ground material is centrifuged at 50,000 g (≈20,500 rpm) for 10 minutes at 4° C.
The residue obtained is resuspended in 10 volumes of homogenization buffer using a Vortex and homogenized with the Ultra-Turrax (5 to 10 seconds, 70% of the maximum speed).
Adenosine deaminase is then added at a rate of 1 U/ml, i.e. 1 μl/ml of homogenate, using a 10 μl Hamilton syringe. The homogenate treated in this way is shaken at room temperature for 30 minutes.
When the incubation is complete, the homogenate is centrifuged at 50,000 g (≈20,500 rpm) for 10 minutes at 4° C.
The residue is taken up with 5 volumes of cold homogenization buffer and passed through the Ultra-Turrax (2 times 10 seconds with a 10-second interval, 70% of the maximum speed) and the homogenate prepared in this way is finally frozen at -70° C. Competitive test
After the homogenate has been thawed at room temperature, 15 volumes of incubation buffer are added. The homogenate is shaken on a Vortex, passed through a Potter mill (6 to-and-fro movements, speed 6), diluted to 1/10 in incubation buffer and finally placed in a water bath thermostated at 4° C., with shaking, until the end of the experiment.
as §2, with “NECA” for “PIA”, “160” for “100”, “4” for “2.5”, “(10^-5” for “(10^-1”, “similar” for “identical”, “compounds” for “beta-blockers”
as §3, with “25°” for “20°”, “60” for “30”, “buffer before being transferred to counting flasks.” for “buffer.”
10 ml of liquid scintillator (Ready Solv HP/b, Beckman) are added to all the flasks. These are shaken and stored in a refrigerator overnight. The radioactivity is determined in a liquid scintillation counter.
as §4, with “NECA” for “PIA”, “determined” for “assessed”, “5 μM N-ethylcarboxamidoadenosine (NECA).” for “10^-5 M phenylisopropyladenosine (PIA).”
as §5

[4] = as specified in Biochemical Pharmacology; cited from earlier work

T2 sequence (P30543 whole entry): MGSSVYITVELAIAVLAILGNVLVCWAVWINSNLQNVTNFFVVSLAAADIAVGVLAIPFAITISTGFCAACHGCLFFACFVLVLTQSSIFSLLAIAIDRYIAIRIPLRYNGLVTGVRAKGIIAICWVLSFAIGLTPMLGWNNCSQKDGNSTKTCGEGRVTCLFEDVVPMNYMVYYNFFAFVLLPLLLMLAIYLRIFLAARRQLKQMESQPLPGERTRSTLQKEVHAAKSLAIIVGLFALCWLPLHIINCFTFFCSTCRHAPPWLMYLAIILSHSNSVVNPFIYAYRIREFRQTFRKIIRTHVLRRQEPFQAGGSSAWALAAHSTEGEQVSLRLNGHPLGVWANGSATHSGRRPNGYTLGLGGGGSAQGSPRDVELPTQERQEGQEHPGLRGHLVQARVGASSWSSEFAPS

Row | Structure (SMILES) | inhibition at 10 µM [2] | inhibition at 0.1 µM [2] | inhibition at 10 µM [3] | inhibition at 0.1 µM [3] | platelet aggregation inhibiting activity (platelet aggregation) | ED50 [1] | antilipolytic activity [4]
1 | OC[C@H]1O[C@@H](n2cnc3c(NCCc4c[nH]c5ccccc45)ncnc32)[C@H](O)[C@@H]1O [derivative A, N-6-[2-(indol-3-yl)ethyl]adenosine] |  |  |  |  | platelet aggregation inhibiting activity |  | 
2 | Cc1ccc(C)c(Cn2cc(CCNc3ncnc4c3ncn4[C@@H]3O[C@H](C(=O)NC4CC4)[C@@H](O)[C@H]3O)c3ccccc32)c1 [Example 68, β-D-Ribofuranuronamido-N-cyclopropyl-1-deoxy-1-[6-[[2-[1-(2,5-dimethylbenzyl)indol-3-yl]ethyl]amino]-9H-purin-9-yl]] | 93% | 26% | 84% | 9% |  | 2.4 mg/kg | 
3 | COc1ccc2[nH]cc(CCNc3ncnc4c3ncn4[C@@H]3O[C@H](CO)[C@@H](O)[C@H]3O)c2c1 [derivative B] |  |  |  |  |  |  | antilipolytic activity
4 | O=C(NC1CC1)[C@H]1O[C@@H](n2cnc3c(NCCc4cn(Cc5ccc(Cl)cc5)c5ccccc45)ncnc32)[C@H](O)[C@@H]1O [Example 61, β-D-Ribofuranuronamido-1-[6-[[2-[1-(4-chlorobenzyl)indol-3-yl]ethyl]amino]-9H-purin-9-yl]-N-cyclopropyl-1-deoxy] | 98% | 47% | 91% | 30% |  | 0.9 mg/kg | 

Now from value to molecule, other results behind:

Row | inhibition at 10 µM [2] | inhibition at 0.1 µM [2] | inhibition at 10 µM [3] | inhibition at 0.1 µM [3] | Structure (SMILES) | platelet aggregation inhibiting activity (platelet aggregation) | ED50 [1] | antilipolytic activity [4]
5 | 100% | 50% | 71% | 3% | Cc1ccc(C)c(Cn2cc(CCNc3ncnc4c3ncn4[C@@H]3O[C@H](C(=O)NC4CC4)[C@@H](O)[C@H]3O)c3cc(C)ccc32)c1 [Example 85, β-D-Ribofuranuronamido-N-cyclopropyl-1-deoxy-1-[6-[[2-[1-(2,5-dimethylbenzyl)-5-methylindol-3-yl]ethyl]amino]-9H-purin-9-yl]] |  | 0.9 mg/kg | 
6 | 96% | 45% | 85% | 22% | CC(Cc1cn(C2CCCC2)c2ccccc12)Nc1ncnc2c1ncn2[C@@H]1O[C@H](C(=O)NC2CC2)[C@@H](O)[C@H]1O (stereo partly drawn) [Example 93, β-D-Ribofuranuronamido-N-cyclopropyl-1-deoxy-1-[6-[[1-[1-cyclopentylindol-3-yl]-propan-2-yl]amino]-9H-purin-9-yl]] |  | 2 mg/kg | 
7 | 100% | 16% | 91% | 17% | COc1ccc2c(c1)c(CCNc1ncnc3c1ncn3[C@@H]1O[C@H](C(=O)NC3CC3)[C@@H](O)[C@H]1O)cn2Cc1cc(C)ccc1C [Example 86, β-D-Ribofuranuronamido-N-cyclopropyl-1-deoxy-1-[6-[[2-[1-(2,5-dimethylbenzyl)-5-methoxyindol-3-yl]ethyl]amino]-9H-purin-9-yl]] |  | ~60 mg/kg | 
8 | 99% | 91% | 96% | 44% | O=C(NC1CC1)[C@H]1O[C@@H](n2cnc3c(NCCc4cn(CCN5CCCCC5)c5ccccc45)ncnc32)[C@H](O)[C@@H]1O [Example 71 (citrate), β-D-ribofuranuronamido-N-cyclopropyl-1-deoxy-1-[6-[[2-[1-(2-N-piperidinoethyl)indol-3-yl]ethyl]amino]-9H-purin-9-yl]citrate] |  | 7.3 mg/kg | 
9 | 56% | 5% | 60% | 7% | Cc1ccc(C)c(Cn2c(C)c(CCNc3ncnc4c3ncn4[C@@H]3O[C@H](C(=O)NC4CC4)[C@@H](O)[C@H]3O)c3ccccc32)c1 [Example 87, β-D-Ribofuranuronamido-N-cyclopropyl-1-deoxy-1-[6-[[2-[1-(2,5-dimethylbenzyl)-2-methylindol-3-yl]ethyl]amino]-9H-purin-9-yl]] |  | 1.2 mg/kg | 
